Laboratory results: patent US11479559B2, “Urea-substituted aromatic ring-linked dioxinoquinoline compounds, preparation method and uses thereof” (BEIJING SCITECH-MQ PHARMACEUTICALS LIMITED, priority 2018, dated 2022)
Read-outs that look alike come from different tables or passages of the source.

Columns and labels:
VEGFR2 tyrosine kinase = VEGFR2 tyrosine kinase (Homo sapiens (Human), UniProt P35968); assay: Assay of small molecular compounds for inhibiting the activity of VEGFR-2 kinase (LANCE TR-FRET)
Chain of VEGFR2 tyrosine kinase (P35968 20-1356): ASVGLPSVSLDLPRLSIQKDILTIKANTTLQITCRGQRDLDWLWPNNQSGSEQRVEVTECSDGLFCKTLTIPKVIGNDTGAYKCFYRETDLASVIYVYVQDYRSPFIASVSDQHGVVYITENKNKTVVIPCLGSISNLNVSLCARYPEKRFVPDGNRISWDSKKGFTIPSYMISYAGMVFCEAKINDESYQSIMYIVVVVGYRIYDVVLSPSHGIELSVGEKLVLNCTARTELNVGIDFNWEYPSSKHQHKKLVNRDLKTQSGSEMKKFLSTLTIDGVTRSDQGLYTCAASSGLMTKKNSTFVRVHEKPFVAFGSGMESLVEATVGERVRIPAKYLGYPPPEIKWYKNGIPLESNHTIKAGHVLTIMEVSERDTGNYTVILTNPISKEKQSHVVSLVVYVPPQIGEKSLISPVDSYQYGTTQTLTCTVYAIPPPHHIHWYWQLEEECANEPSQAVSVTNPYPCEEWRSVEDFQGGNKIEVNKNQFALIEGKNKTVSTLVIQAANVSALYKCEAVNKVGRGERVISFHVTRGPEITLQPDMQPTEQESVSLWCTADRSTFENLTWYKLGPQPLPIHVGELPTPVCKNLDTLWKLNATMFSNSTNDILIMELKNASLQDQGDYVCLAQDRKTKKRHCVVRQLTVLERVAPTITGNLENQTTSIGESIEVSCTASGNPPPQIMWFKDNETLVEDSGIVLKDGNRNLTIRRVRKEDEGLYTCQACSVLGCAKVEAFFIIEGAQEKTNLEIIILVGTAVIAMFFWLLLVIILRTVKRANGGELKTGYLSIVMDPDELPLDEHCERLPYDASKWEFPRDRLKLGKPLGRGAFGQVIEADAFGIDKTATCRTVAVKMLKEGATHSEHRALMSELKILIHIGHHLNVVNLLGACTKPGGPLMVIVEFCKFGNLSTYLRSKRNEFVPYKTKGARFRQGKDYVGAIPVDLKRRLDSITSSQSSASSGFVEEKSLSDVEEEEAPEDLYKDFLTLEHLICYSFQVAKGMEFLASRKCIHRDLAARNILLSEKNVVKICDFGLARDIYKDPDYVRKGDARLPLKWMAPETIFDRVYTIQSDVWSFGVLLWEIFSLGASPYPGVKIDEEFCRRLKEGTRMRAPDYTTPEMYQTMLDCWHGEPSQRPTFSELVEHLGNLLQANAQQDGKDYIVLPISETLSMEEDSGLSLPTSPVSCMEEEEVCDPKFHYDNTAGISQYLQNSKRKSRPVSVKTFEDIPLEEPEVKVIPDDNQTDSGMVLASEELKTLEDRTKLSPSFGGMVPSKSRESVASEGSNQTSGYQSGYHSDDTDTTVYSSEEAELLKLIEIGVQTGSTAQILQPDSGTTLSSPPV
Experimental: (§1) The assay is based on the LANCE TR-FRET technology of Perkin Elmer Inc., and the assay method is as follows:
(§2) 2.5 μL of the gradient-diluted compounds were taken with a transfer pipette to a 384-well plate.
Addition of enzyme: 5 μL of 2× VEGFR2 kinase solution (concentration was 0.5 nM) was taken with a transfer pipette to the corresponding reaction well of the 384-well plate, mixed well and pre-reacted at room temperature for 30 minutes.
2.5 μL 4× Ultra ULight™-JAK-1 (Tyr1023) Peptide (concentration was 200 nM)/ATP (concentration was 40 μMM) mixture was taken with a transfer pipette to the corresponding reaction well of the 384-well plate.
Negative control: 2.5 μL/well 4× substrate/ATP mixture and 7.5 μL 1× Kinase Assay Buffer were added to the wells of the 384-well plate.
(§3) The final concentration of DMSO in the reaction system was 4%.
(§4) The mixture was mixed well and then centrifuged and reacted at room temperature in dark for 60 min.
(§5) The 384-well plate was placed into the Envision plate reader and the signal was detected using the appropriate program.

RET tyrosine kinase = RET tyrosine kinase (Homo sapiens (Human), UniProt P07949); assay: Assay of small molecular compounds for inhibiting the activity of RET kinase (LANCE TR-FRET); details: read-out: RET IC50
Chain of RET tyrosine kinase (P07949 29-1114): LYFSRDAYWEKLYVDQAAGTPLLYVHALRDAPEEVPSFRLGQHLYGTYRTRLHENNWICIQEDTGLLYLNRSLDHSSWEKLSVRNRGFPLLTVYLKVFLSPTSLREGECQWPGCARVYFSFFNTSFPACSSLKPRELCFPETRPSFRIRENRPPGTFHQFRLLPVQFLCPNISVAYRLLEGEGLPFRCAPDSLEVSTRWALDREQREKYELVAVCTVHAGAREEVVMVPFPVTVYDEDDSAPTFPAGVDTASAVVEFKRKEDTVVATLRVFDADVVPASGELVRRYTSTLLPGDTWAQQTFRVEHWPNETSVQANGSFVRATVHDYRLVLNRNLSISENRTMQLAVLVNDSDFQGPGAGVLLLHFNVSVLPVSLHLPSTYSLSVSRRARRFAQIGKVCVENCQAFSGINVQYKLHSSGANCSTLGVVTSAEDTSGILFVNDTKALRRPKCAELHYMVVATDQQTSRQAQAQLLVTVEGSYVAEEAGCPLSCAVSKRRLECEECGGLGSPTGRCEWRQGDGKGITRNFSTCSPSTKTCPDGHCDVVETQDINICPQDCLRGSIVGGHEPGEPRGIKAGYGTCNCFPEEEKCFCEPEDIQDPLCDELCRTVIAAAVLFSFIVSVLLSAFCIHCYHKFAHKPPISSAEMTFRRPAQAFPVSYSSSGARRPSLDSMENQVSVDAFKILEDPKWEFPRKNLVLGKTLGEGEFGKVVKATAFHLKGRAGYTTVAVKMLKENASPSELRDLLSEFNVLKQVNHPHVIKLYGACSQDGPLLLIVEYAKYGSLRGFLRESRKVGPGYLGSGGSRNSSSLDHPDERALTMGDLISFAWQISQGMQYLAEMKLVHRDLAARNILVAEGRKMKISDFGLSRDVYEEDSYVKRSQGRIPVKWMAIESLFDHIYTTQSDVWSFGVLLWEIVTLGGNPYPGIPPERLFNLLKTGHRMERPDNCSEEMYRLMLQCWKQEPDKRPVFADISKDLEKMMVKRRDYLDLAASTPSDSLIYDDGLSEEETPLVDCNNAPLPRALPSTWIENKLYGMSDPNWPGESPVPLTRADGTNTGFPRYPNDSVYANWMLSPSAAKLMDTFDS
Experimental: as §1, §2
Addition of enzyme: 5 μL of 2× RET kinase solution (concentration was 0.8 nM) was taken with a transfer pipette to the corresponding reaction well of the 384-well plate, mixed well and pre-reacted at room temperature for 30 minutes.
2.5 μL 4× Ultra ULight™-JAK-1 (Tyr1023) Peptide (concentration was 200 nM)/ATP (concentration was 40 μM) mixture was taken with a transfer pipette to the corresponding reaction well of the 384-well plate.
as §3, §4, §5

Row | SMILES | IC50 (VEGFR2 tyrosine kinase; read-out: VEGFR-2 IC50) [µM] | IC50 (RET tyrosine kinase) [µM] | IC50 (VEGFR2 tyrosine kinase) [µM]
1 | COCCN(C)CCCOc1cc2nccc(Oc3ccc(NC(=O)NC4CC4)c(Cl)c3)c2c2c1OCCO2 [Example 62, 1-(2-chloro-4-((5-(3-((2-methoxyethyl)(methyl)amino)propoxy)-2,3-dihydro-[1,4]dioxino[2,3-f]quinolin-10-yl)oxy)phenyl)-3-cyclopropylurea] | < 0.05 | < 0.05 | 
2 | CN(CCCOc1cc2nccc(Oc3ccc(NC(=O)NC4CC4)c(Cl)c3)c2c2c1OCCO2)C1CCC1 [Example 63, 1-(2-chloro-4-((5-(3-(cyclobutyl(methyl)amino)propoxy)-2,3-dihydro-[1,4]dioxino[2,3-f]quinolin-10-yl)oxy)phenyl)-3-cyclopropylurea] | < 0.05 | < 0.05 | 
3 | O=C(Nc1ccc(Oc2ccnc3cc(OCCO)c4c(c23)OCCO4)cc1Cl)NC1CC1 [Example 48, 1-(2-chloro-4-((5-(2-hydroxyethoxy)-2,3-dihydro-[1,4]dioxino[2,3-f]quinolin-10-yl)oxy)phenyl)-3-cyclopropylurea] | < 0.05 | < 0.05 | 
4 | O=C(Nc1ccc(Oc2ccnc3cc(OCCO)c4c(c23)OCCO4)cc1)Nc1ccc(Cl)c(C(F)(F)F)c1 [Example 14, 1-(4-chloro-3-(trifluoromethyl)phenyl)-3-(4-((5-(2-hydroxyethoxy)-2,3-dihydro-[1,4]dioxino[2,3-f]quinolin-10-yl)oxy)phenyl)urea] | < 0.05 | < 0.05 | 
5 | N#CCCCOc1cc2nccc(Oc3ccc(NC(=O)Nc4ccc(Cl)c(C(F)(F)F)c4)cc3)c2c2c1OCCO2 [Example 94, 1-(4-chloro-3-(trifluoromethyl)phenyl)-3-(4-((5-(3-cyanopropoxy)-2,3-dihydro-[1,4]dioxino[2,3-f]quinolin-10-yl)oxy)phenyl)urea] |  | < 0.05 | 0.05 to 0.5
6 | CNC(=O)Nc1ccc(Oc2ccnc3cc(OC)c4c(c23)OCCO4)cc1Cl [Example 79, 1-(2-chloro-4-((5-methoxy-2,3-dihydro-[1,4]dioxino[2,3-f]quinolin-10-yl)oxy)phenyl)-3-methylurea] | < 0.05 | < 0.05 | 
